Test results: EP0471298B1, “Carbamoyl-1-(pyridinylalkyl)-1H-indoles, indolines and related analogs” (priority 1990, dated 1992)
pIC50: −log10 of the molar value. Read-outs that look alike come from different tables or passages of the source.

Molecular target: T1, Acetylcholinesterase (AChE) (Rattus norvegicus, UniProt P37136)
T1 construct: corpora striata dissected free, weighed and homogenized in 19 volumes; from tissue; host or cells: rat corpora striata (brain) homogenate, male Wistar rats
Test: In vitro inhibition of acetylcholinesterase activity in rat striatum (modified Ellman method)
Assay type: biochemical
Excerpt: Cholinesterases are found throughout the body, both in the brain and in serum. However, only brain acetylcholinesterease (AChE) distribution is correlated with central cholinergic innervation. […] We have determined in vitro inhibition of acetylcholinesterase activity in rat striatum according to the method described below.
In Vitro Inhibition of Acetylcholinesterase Activity in Rat Striatum
The method described below was used in this invention for assaying anticholinesterase activity. This is a modification of the method of Ellman et al., Biochem. Pharmacol. 7, 88 (1961).
• A. Reagents - • 1. 0.05 M Phosphate buffer, pH 7.2 • (a) 6.85 g NaH₂PO₄·H₂O/100 mi distilled H₂O • (b) 13.40 g Na₂HPO₄·7H₂O/100 ml distilled H₂O • (c) add (a) to (b) until pH reaches 7.2 • (d) Dilute 1:10 • 2. […] If active, IC₅₀ values are determined from the inhibitory activity of subsequent concentrations. • B. Tissue Preparation - Male Wistar rats are decapitated, brains rapidly removed, corpora striata dissected free, weighed and homogenized in 19 volumes (approximately 7 mg protein/ml) of 0.05 M phosphate buffer, pH 7.2, using a Potter-Elvehjem homogenizer. […] Assay Enzyme activity is measured with the Beckman DU-50 spectrophotometer. […] This program also calculates the rate of absorbance change for each cuvette. […]

T1 sequence (P37136 32-614): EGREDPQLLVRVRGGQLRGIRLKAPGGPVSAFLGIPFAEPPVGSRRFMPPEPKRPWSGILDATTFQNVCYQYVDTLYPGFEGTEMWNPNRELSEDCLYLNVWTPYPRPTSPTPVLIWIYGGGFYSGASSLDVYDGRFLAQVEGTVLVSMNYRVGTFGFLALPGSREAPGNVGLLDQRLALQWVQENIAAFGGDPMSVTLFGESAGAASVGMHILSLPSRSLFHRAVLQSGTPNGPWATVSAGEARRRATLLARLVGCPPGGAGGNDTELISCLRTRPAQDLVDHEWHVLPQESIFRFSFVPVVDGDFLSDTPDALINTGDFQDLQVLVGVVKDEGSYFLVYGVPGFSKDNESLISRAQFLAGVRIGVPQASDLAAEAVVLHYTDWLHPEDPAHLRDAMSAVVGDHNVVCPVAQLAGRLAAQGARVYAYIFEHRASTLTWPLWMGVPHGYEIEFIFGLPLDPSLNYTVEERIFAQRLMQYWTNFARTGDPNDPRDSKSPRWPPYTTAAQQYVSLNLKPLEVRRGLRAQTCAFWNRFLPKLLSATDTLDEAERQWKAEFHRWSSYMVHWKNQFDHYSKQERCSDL

SMILES	pIC50	pIC50 (Brain acetylcholinesterase, rat striatum homogenate, preincubated 10 minutes at 37°C, acetylthiocholine 5 mM final, pH 7.2, read-out: Inhibitory Concentration IC₅₀)
CNC(=O)Oc1ccc2c(ccn2Cc2ccncc2)c1 [Example 1, 1-(4-Pyridinylmethyl)-1H-indol-5-yl methylcarbamate]	5.17	
O=C(NCc1ccccc1)Oc1ccc2c(ccn2Cc2ccncc2)c1 [Example 3, 1-(4-Pyridinylmethyl)-1H-indol-5-yl phenylmethylcarbamate]		4.90
